Among the data in patent US20250154145A1, “OXER1 ANTAGONISTS AND USES THEREOF” (Fairhaven Pharmaceuticals Ins., priority 2021, published 2025) are IC50 values, retold here.

Usually IC50 stands for the concentration that gives 50% inhibition.

The subject of this assay is neutrophils. The assay can be described thus: Neutrophil calcium flux assay (5-OXO-ETE-stimulated, Indo-1 fluorescence). The class given is cell-based. To be noted: 5-OXO-ETE-stimulated calcium flux. As to the method:
After isolation, neutrophils were resuspended in PBS without calcium and Magnesium (PBS −/−) at a concentration of 5×10^6 cells/ml. 2ul of Indo-1 (1 mM) were added per ml of cells. After incubation at 37° C. for 30 minutes, cells were washed twice in PBS −/− and resuspended at 5×10^6 cells/ml in assay buffer (HBSS 1× with calcium and magnesium and […]). In a 96-well Black optical clear bottom plate 100 μL of neutrophil were dispensed to each well. After incubation at 37° C. for 5 minutes, 50 μL of assay buffer or 3× antagonist were added and incubated for 5 min in a Tecan Spark plate reader (Tecan, Morrisville, NC). Baseline was measured for 30 sec (wavelength setup: excitation: 331 nm and emission:410 nm). When baseline is stable, 50p of 5-OXO-ETE at 200 nM (4×) or HBSS was added to appropriate wells. Fluorescence was measured every 5 seconds for 30 cycles. Results are expressed as Net fluorescence (FLU minus Background and injection peak). All data were analyzed using GraphPad Prism version 9 for Windows (GraphPad, San Diego, CA).
On the technique in general: Calcium assays in cells follow changes in intracellular calcium, usually with a dye or a luminescent sensor.

For the molecule `Cn1c(CCCCCCC#CC2CC(F)(F)C2)c(C(=O)O)c2cc(Br)cnc21` [Compound I-348], where the note is “Neutrophil”, the IC50 is above 300 nM.
`C[C@H](CC(=O)O)CC(=O)c1c(CCCCCCCC#CC2CC(F)(F)C2)n(C)c2ncc(C#N)cc12` [Compound I-335]: under “Neutrophil”, the IC50 is below 100 nM.
On to `C[C@H](CC(=O)O)CC(=O)c1c(CCCCCNc2cccc(Cl)c2)n(C)c2ccc(Cl)cc12` [Compound I-79], for which the IC50 (Neutrophil) is below 100 nM.
For `C[C@H](CC(=O)O)CC(=O)c1c(CCCCCOCc2ccccc2)n(C)c2ncc(C#N)cc12` [Compound I-422], under “Neutrophil”, the IC50 is 100 to 300 nM.
Still for that read-out and setting: to `C[C@@H](CC(=O)c1c(CCCCOCc2cccc(Cl)c2)n(C)c2ncc(Cl)cc12)Cc1nnn[nH]1` [Compound I-355] belongs below 100 nM; to `C[C@H](CC(=O)O)CC(=O)c1c(CCCCC[C@@H](O)c2cccc(Cl)c2)n(C)c2ncc(Cl)cc12` [Compound I-107], below 100 nM.
For `C[C@H](CC(=O)O)CC(=O)c1c(CCCCCOCc2cccc(Cl)c2)n(C)c2ccc(C#N)cc12` [Compound I-425], the IC50 (Neutrophil) lay within 100 to 300 nM.
On the same count and under the same terms, for `Cn1c(CCCCCCCC#CC2CC(F)(F)C2)c(C(=O)N2CC[C@H](C(=O)O)C2)c2cc(C#N)cnc21` [Compound I-342] the value was above 300 nM.
Consider `CC(CC(=O)O)CC(=O)c1c(CCCCCC(O)c2cccc(C(=O)N(C)C)c2)n(C)c2ncc(C#N)cc12` (single isomer, unassigned) [Compound I-315], for which the IC50 was above 300 nM.
Turning to `C[C@H](CC(=O)O)CC(=O)c1c(COCCCCC#CC2CC(F)(F)C2)n(C)c2ccc(Cl)cc12` [Compound I-327], the IC50 (Neutrophil) was below 100 nM.
Still for that read-out and setting: to `C[C@@H](CC(=O)c1c(CCCCOCc2ccccc2)n(C)c2ncc(C#N)cc12)Cc1nnn[nH]1` [Compound I-359] belongs below 100 nM; to `CC(CN(C)C(=O)c1c(CCCCCCc2cccc(Cl)c2)n(C)c2ccc(Cl)cc12)C(=O)O` (stereo not drawn) [Compound I-243], above 300 nM; to `C[C@H](CC(=O)O)CC(=O)c1c(CCCCCOc2ncccn2)n(C)c2ccc(Cl)cc12` [Compound I-130], above 300 nM.
On to `COc1cccc(CCCCC#Cc2c(C(=O)CC(C)CC(=O)O)c3cc(C#N)cnc3n2C)c1` (stereo not drawn) [Compound I-419], for which the IC50 (Neutrophil) was above 300 nM.
On the same count and under the same terms, to `CC(CC(=O)O)CC(=O)c1c(CCCCOCc2cccc(F)c2)n(C)c2ncc(C#N)cc12` (stereo not drawn) [Compound I-231] belongs below 100 nM; to `C[C@H](CC#N)CC(=O)c1c(CCCCOCc2cccc(Cl)c2)n(C)c2ncc(Cl)cc12` [Compound I-357], above 300 nM; to `COC(=O)NCCCCCc1c(C(=O)CC(C)CC(=O)O)c2cc(Cl)ccc2n1C` (stereo not drawn) [Compound I-134], above 300 nM.
As to `Cn1c(CCCCCCc2cccc(Cl)c2)c(C(=O)N2CC(C(=O)O)C2)c2cc(Cl)cnc21` [Compound I-153], the half-inhibitory concentration (IC50) (Neutrophil) is above 300 nM.
Still for that read-out and setting: to `C[C@H](CC(=O)O)CC(=O)c1c(CCOCC#Cc2ccc(F)nc2)n(C)c2ncc(Cl)cc12` [Compound I-229] belongs 100 to 300 nM; to `C[C@H](CC(=O)O)CC(=O)c1c(CCCCCN(C)c2ncccn2)n(C)c2ccc(Cl)cc12` [Compound I-124], 100 to 300 nM; to `CC(CC(=O)O)CC(=O)c1c(CCCCOCc2cccc(C#N)c2)n(C)c2cccnc12` (stereo not drawn) [Compound I-398], above 300 nM.
Take `Cn1c(CCCCCCC#CC2CC(F)(F)C2)c(C(=O)N2CC[C@H](C(=O)NS(=O)(=O)C(F)(F)F)C2)c2cc(C#N)cnc21` [Compound I-364]: the IC50 (Neutrophil) is above 300 nM.
The same measure, in the same setting: for `Cn1c(CCCCCCc2cccc(Cl)c2)c(C(=O)N2CC[C@H](C(=O)O)C2)c2cc(Cl)cnc21` [Compound I-147] the value was above 300 nM; for `C[C@@H](CC(=O)O)CC(=O)c1c(CCCCOCc2cccc(C#N)c2)n(C)c2ccncc12` [Compound I-397], above 300 nM.
The same measure, in the same setting: to `Cn1c(CCCCOCc2cccc(Cl)c2)c(C(=O)N2CC[C@H](c3nnn[nH]3)C2)c2cc(C(F)(F)F)ccc21` [Compound I-188] belongs 100 to 300 nM; to `C[C@@H]1CN(C(=O)c2c(CCCCCCC#CC3CC(F)(F)C3)n(C)c3ncc(C#N)cc23)C[C@H]1C(=O)O` [Compound I-347], above 300 nM.
With `Cn1nc(-c2cccc(Cl)c2)c(C(=O)N2CC[C@H](C(=O)O)C2)c1CCCCOCc1cccc(Cl)c1` [Compound I-191], the 50% inhibitory concentration (IC50) (Neutrophil) is above 300 nM.
The same measure, in the same setting: to `CC(CC(=O)O)CC(=O)c1c(CCCCCCc2cscn2)n(C)c2ncc(C#N)cc12` (stereo not drawn) [Compound I-373] belongs 100 to 300 nM; to `CC(C)[C@@H](CC(=O)O)CC(=O)c1c(CCCCOCc2ccccc2)n(C)c2ncc(C#N)cc12` [Compound I-437], above 300 nM.
Same read-out and setting: to `Cn1c(CCCCOCc2cccc(Cl)c2)c(C(=O)N2CC[C@H](C(=O)O)C2)c2cc(C(F)(F)F)ccc21` [Compound I-187] belongs 100 to 300 nM.
On the same count and under the same terms, to `C[C@H](CC(=O)O)CC(=O)c1c(CCCCCCc2cccc(Cl)c2)n(C)c2ncc(Cl)cc12` [Compound I-24] belongs above 300 nM; to `CC(CC(=O)O)CC(=O)c1c(CCCCOCc2cncnc2)n(C)c2ccc(C#N)cc12` (stereo not drawn) [Compound I-393], above 300 nM.
In the case of `Cn1c(CCCCCCc2cccc(Cl)c2)c(C(=O)N2CCC[C@@H]2CC(=O)O)c2cc(Cl)ccc21` [Compound I-119], the IC50 (Neutrophil) is above 300 nM.
The same measure, in the same setting: to `CC(CC(=O)O)CC(=O)c1c(CCCCCC(O)c2cccc(C#N)c2)n(C)c2ncc(Cl)cc12` (stereo not drawn) [Compound I-286] belongs below 100 nM; to `C[C@H](CC(=O)O)CC(=O)c1c(CCCCC[C@H](O)c2cccc(Cl)c2)n(C)c2ncc(Cl)cc12` [Compound I-110], below 100 nM.
The same measure, in the same setting: to `C[C@H](CC(=O)O)CC(=O)c1c(CCCCOCc2cccc(OC(F)(F)F)c2)n(C)c2cnccc12` [Compound I-408] belongs below 100 nM.
Consider `CC(CC(=O)O)CC(=O)c1c(CCCCOCc2cncnc2)n(C)c2ncc(C#N)cc12` (stereo not drawn) [Compound I-388], for which, where the note is “Neutrophil”, the IC50 is above 300 nM.
As for `Cn1nc(CCCCOCc2cccc(Cl)c2)c(C(=O)N2CC[C@H](C(=O)O)C2)c1-c1cccc(Cl)c1` [Compound I-192], the IC50 (Neutrophil) was above 300 nM.
Still for that read-out and setting: to `CC(CC(=O)O)CC(=O)c1c2cc(C#N)cnc2n(C)c1[C@H]1CC[C@H](OCc2cccc(Cl)c2)CC1` (stereo partly drawn) [Compound I-367] belongs above 300 nM; to `C[C@H](CC(=O)O)CC(=O)c1c(CCCCCNc2ncccn2)n(C)c2ccc(Cl)cc12` [Compound I-82], 100 to 300 nM.
Same read-out and setting: to `CC(CC(=O)O)CC(=O)c1c(CCCCSCc2ccccc2)n(C)c2ncc(C#N)cc12` (stereo not drawn) [Compound I-426] belongs above 300 nM; to `C[C@@H](CC(=O)NS(C)(=O)=O)CC(=O)c1c(CCCCCCc2cccc(Cl)c2)n(C)c2ccc(Cl)cc12` [Compound I-15], above 300 nM; to `COc1cccc(COCCCCc2c(C(=O)CC(C)CC(=O)O)c3cc(Cl)cnc3n2C)n1` (stereo not drawn) [Compound I-447], above 300 nM.
Same read-out and setting: to `C[C@H](CC(=O)O)CC(=O)c1c(CCCCOCc2cccc(C#N)c2)n(C)c2cnc(Cl)cc12` [Compound I-404] belongs below 100 nM.
As for `[2H]C([2H])([2H])n1c(CCCCOCc2cccc(Cl)c2)c(C(=O)C[C@H](C)CC(=O)O)c2cc(C#N)ccc21` [Compound I-421], the IC50 (Neutrophil) is below 100 nM.
`CC(CC(=O)NS(C)(=O)=O)CC(=O)c1c(CCCCOCc2ccccc2)n(C)c2ncc(C#N)cc12` (stereo not drawn) [Compound I-362]: under “Neutrophil”, the IC50 is above 300 nM.
Regarding `C[C@H](CC(=O)O)CC(=O)c1c(CCCCOCc2ccc(F)cc2)n(C)c2ncc(C#N)cc12` [Compound I-368], the 50% inhibitory concentration (IC50) is 100 to 300 nM.
`C[C@H](CC(=O)O)CC(=O)c1c(CCCCOCc2cc(Cl)cc(Cl)c2)n(C)c2ncc(C#N)cc12` [Compound I-385]: the IC50 (Neutrophil) was below 100 nM.
The same measure, in the same setting: to `CC(CC(=O)O)CC(=O)c1c(CCCC(C)OCc2ccccc2)n(C)c2ncc(C#N)cc12` (stereo not drawn) [Compound I-435] belongs 100 to 300 nM; to `C[C@@H](CC(=O)O)CC(=O)c1c(CCCCOCc2cccc(C#N)c2)n(C)c2ncc(C#N)cc12` [Compound I-384], above 300 nM.
As for `Cn1c(CCCCOCc2ccccc2)c(C(=O)CC(CC(=O)O)C(F)(F)F)c2cc(C#N)cnc21` (stereo not drawn) [Compound I-440], the IC50 (Neutrophil) was above 300 nM.
Consider `CC(CC(=O)O)CC(=O)c1c(C2CCN(CCc3cccc(Cl)c3)CC2)n(C)c2ncc(C#N)cc12` (stereo not drawn) [Compound I-295], for which the IC50 (Neutrophil) is above 300 nM.
Turning to `C[C@H](CC(=O)O)CC(=O)c1c(CCOCCNc2cccc(Cl)c2)n(C)c2ccc(Cl)cc12` [Compound I-142], the IC50 (Neutrophil) is below 100 nM.
For the molecule `Cn1c(CCCCOCc2ccccc2)c(C(=O)N2CC[C@H](C(=O)O)C2)c2cnccc21` [Compound I-441], the IC50 (Neutrophil) was above 300 nM.
Same read-out and setting: to `C[C@@H](CC(=O)O)CC(=O)c1c(CCCCCCc2cncs2)n(C)c2ncc(C#N)cc12` [Compound I-372] belongs above 300 nM; to `CC(CC(=O)O)CC(=O)c1c2cc(C#N)cnc2n(C)c1[C@H]1CC[C@@H](COCc2cccc(Cl)c2)CC1` (stereo partly drawn) [Compound I-400], above 300 nM; to `C[C@H](CC(=O)O)CC(=O)c1c(CCCCOCc2ccccc2)n(C)c2ncc(Cl)cc12` [Compound I-99], 100 to 300 nM.
With `CC(CC(=O)O)CC(=O)c1c(C[C@H]2CC[C@@H](OCc3cccc(Cl)c3)CC2)n(C)c2ncc(C#N)cc12` (stereo partly drawn) [Compound I-399], the 50% inhibitory concentration (IC50) (Neutrophil) is above 300 nM.
The same measure, in the same setting: to `C[C@@H](CC(=O)O)CC(=O)c1c(CCCCOCc2cccc(OC(F)(F)F)c2)n(C)c2ncc(C#N)cc12` [Compound I-390] belongs above 300 nM; to `Cn1cc(-c2cccc(Cl)c2)c(C(=O)N2CC[C@H](C(=O)O)C2)c1CCCCOCc1cccc(Cl)c1` [Compound I-167], above 300 nM.
